Measured values reported in publication PMC10975434 (Pharmaceutics, 2024).
Numbering of substitutions follows the chain as printed. Values joined by “and” are separate entries in the source; they are usually repeats but may differ in a detail not shown here. Equal values may be shown once. Read-outs that look alike come from different tables or passages of the source.

Tests used:
UGT2B7 [1] = target: T1, UGT2B7 (Homo sapiens, UniProt P16662, Y268H); test: Inhibition screening of morphine glucuronidation in rUGT2B7-overexpressing HEK293 cell microsomes; settings: rUGT-overexpressing microsomes and HLM
T1 sequence (P16662 24-529 Y268H): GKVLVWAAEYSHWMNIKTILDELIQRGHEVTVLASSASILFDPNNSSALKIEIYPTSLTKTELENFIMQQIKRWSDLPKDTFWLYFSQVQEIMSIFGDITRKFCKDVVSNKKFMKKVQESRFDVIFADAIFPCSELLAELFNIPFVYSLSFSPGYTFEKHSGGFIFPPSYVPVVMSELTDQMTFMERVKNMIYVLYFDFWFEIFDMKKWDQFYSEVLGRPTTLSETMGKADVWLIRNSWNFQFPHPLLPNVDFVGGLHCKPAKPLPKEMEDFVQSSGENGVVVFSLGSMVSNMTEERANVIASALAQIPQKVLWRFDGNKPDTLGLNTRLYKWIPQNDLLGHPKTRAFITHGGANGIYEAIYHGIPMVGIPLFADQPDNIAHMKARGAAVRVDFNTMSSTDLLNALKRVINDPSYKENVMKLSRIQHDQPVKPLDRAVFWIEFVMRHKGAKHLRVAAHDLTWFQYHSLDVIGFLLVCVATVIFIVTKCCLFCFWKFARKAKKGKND

UGT2B7 [2] = target: T1, UGT2B7; test: IC50 determination, morphine glucuronidation in rUGT2B7-overexpressing HEK293 cell microsomes
UGT2B7 [3] = target: T2, UGT2B7 (Homo sapiens, UniProt P16662); test: Inhibition screening of morphine glucuronidation in pooled human liver microsomes (HLM); settings: 100 µM cannabinoid
T2 sequence (P16662 24-529): T1 sequence (P16662 24-529 Y268H) with H245Y

[4] = Estimated unbound maximum hepatic inlet concentration used for the static model; settings: read-out: Cmax,hepatic inlet,u, estimated from Cmax of Bansal et al., 2022 [56]
Procedure: (8) [I]h=fu,p×Cmax+Fa ×Fg×Ka×Dose/Qh ×Rb
For the static mechanistic modeling, hepatic blood flow (Qh) and enterocyte blood flow (Qen) were set to 1500 mL/min and 300 mL/min, respectively, and the blood-to-plasma concentration ratio (RB) was set to 0.4 [55].
C௠௔௫ ,௛௘௣௔௧௜௖ ௜௡௟௘௧ ,௨ ൌ f௨,௣ ൈ ቀC௠௔௫ ൅ ிೌ ൈ ி೒ ൈ ௄ೌ ൈ஽௢௦௘ொ೓ ൈ ோ್ቁ, where fu,p (unbound fraction in plasma) wa s set

UGT2B7 [5] = target: T1, UGT2B7
UGT2B7 [6] = target: T2, UGT2B7; test: IC50 determination and calculated Ki, morphine glucuronidation in HLM
UGT2B7 [7] = target: T2, UGT2B7
[8] = cited from earlier work
[9] = read-out: IC50,u, Morphine-3-Glucuronide formation, corrected for non-specific binding with fu,inc (11-OH-THC fu,inc as surrogate for 11-COOH-THC and 7-OH-CBD)
[10] = read-out: IC50,u, Morphine-6-Glucuronide formation, corrected for non-specific binding with fu,inc (11-OH-THC fu,inc as surrogate for 11-COOH-THC and 7-OH-CBD)
[11] = read-out: Calculated Ki, Morphine-3-Glucuronide, Ki=IC50/2 assuming competitive inhibition
[12] = read-out: Calculated Ki, Morphine-6-Glucuronide, Ki=IC50/2 assuming competitive inhibition
[13] = read-out: Calculated Ki,u, Morphine-3-Glucuronide, Ki corrected with fu,inc
[14] = read-out: Calculated Ki,u, Morphine-6-Glucuronide, Ki corrected with fu,inc

Molecule | inhibition of UGT2B7-mediated morphine metabolism (overall, in words) (UGT2B7 [1]) | IC50 (UGT2B7 [2]; [9]) | IC50 (UGT2B7 [2]; [10]) | inhibition of M3G and M6G formation in HLM (in words) (UGT2B7 [3]) | IC50 (UGT2B7 [5]) | Ki (UGT2B7 [6]; [11]) | Ki (UGT2B7 [6]; [12]) | Ki (UGT2B7 [6]; [13]) | Ki (UGT2B7 [6]; [14]) | IC50 (UGT2B7 [6]; [9]) | IC50 (UGT2B7 [6]; [10]) | IC50 (UGT2B7 [7]) | Cmax ([4]; THC dose 20 mg, Oral) | Cmax ([4]; THC dose 25 mg, Inhalation) | Cmax ([4]; THC dose 70 mg, Inhalation) | Cmax ([4]; THC dose 100 mg, Inhalation) | Cmax ([4]; THC dose 130 mg, Oral) | Cmax ([4]; THC dose 160 mg, Oral) | also measured
C=C(C)[C@@H]1CCC(CO)=C[C@H]1c1c(O)cc(CCCCC)cc1O [7-OH-CBD, 7-hydroxy-cannabidiol] | strong inhibition | 3 ± 2.1 µM | 3 ± 0.7 µM | significant inhibition | 38 µM and 39 µM | 8.59 ± 3.05 µM | 3.99 ± 2.54 µM | 0.81 ± 0.29 µM | 0.38 ± 0.12 µM | 1.6 ± 0.57 µM | 0.75 ± 0.24 µM |  |  |  |  |  |  |  | Cmax ([4]; CBD dose 70 mg, Oral): 30 nM; Cmax ([4]; CBD dose 700 mg, Oral): 340 nM; Cmax ([4]; CBD dose 2000 mg, Oral): 980 nM
CCCCCc1cc(O)c2c(c1)OC(C)(C)[C@@H]1CCC(C(=O)O)=C[C@@H]21 [11-COOH-THC, 11-nor-9-carboxy-Δ^9-tetrahydrocannabinol] | more moderate inhibition | 3.7 ± 1.2 µM | 4.3 ± 1.2 µM | weak to moderate inhibition | 47 µM and 55 µM | 91.6 ± 18.5 µM | 52.1 ± 8.16 µM | 8.61 ± 1.74 µM | 4.89 ± 0.77 µM | 17 ± 3.5 µM | 9.8 ± 1.5 µM | 184 µM and 104 µM | 190 nM | 70 nM | 180 nM | 260 nM | 1220 nM | 1500 nM | 
C=C(C)[C@@H]1CCC(C(=O)O)=C[C@H]1c1c(O)cc(CCCCC)cc1O [7-COOH-CBD, 7-carboxy-cannabidiol] |  |  |  | weak to moderate inhibition |  |  |  |  |  |  |  |  |  |  |  |  |  |  | 
11-hydroxy-Δ^9-tetrahydrocannabinol [11-OH-THC] | strong inhibition | 0.96 ± 0.27 µM | 0.96 ± 0.28 µM | significant inhibition | 12 ± 3.5 µM | 8.82 ± 8.42 µM | 6.61 ± 5.02 µM | 0.82 ± 0.79 µM | 0.62 ± 0.47 µM | 1.7 ± 1.6 µM | 1.2 ± 0.95 µM | 18 µM and 13 µM | 20 nM | 10 nM | 30 nM | 50 nM | 100 nM | 120 nM | unbound fraction (fu,inc) ([8]; HLM): 0.094; unbound fraction (fu,inc) ([8]; rUGT-overexpressing microsomes): 0.078
